Test results as given in patent US4230711A (priority 1979, dated 1980).

What was measured:
[1] = tested on: fungi; settings: cited from earlier work
[2] = tested on: Septoria apii; assay type: in vivo; settings: @ 250 ppm; celery (Utah) plants; approximately 14 days; relative to untreated check plants
[3] = tested on: Alternaria solani conidia; settings: in vivo
[4] = tested on: Phytophthora infestans conidia; assay type: in vivo; settings: @ 250 ppm; tomato (Bonny Best) seedlings sprayed, inoculated one day later; approximately 7 days; relative to untreated check plants
[5] = tested on: Erysiphe polygoni; settings: in vivo

SMILES	fungicidal activity [1]	% Control, Celery Late Blight [2]	% Control, Tomato Early Blight [3]	% Control, Tomato Late Blight [4]	% Control, Bean Powdery Mildew [5]
O=C1c2ccccc2C(=O)N1SC(Cl)(Cl)Cl [N-(trichloromethylthio)phthalimide]	having fungicidal activity				
CC1(C)C(=O)NC(=O)c2ccccc21 [Compound 3, 4,4-dimethyl homophthalimide]		0%	0%	0%	0%
CC1(C)C(=O)N(SC(Cl)(Cl)Cl)C(=O)c2ccccc21 [Compound 1, N-(trichloromethylthio)-4,4-dimethyl homophthalimide]		50%	33%	95%	96%
